Consider 3 compounds from patent US9943540B2, “Pharmaceutical formulation for the treatment of osteoarthritis containing clodronic acid and hyaluronic acid” (ABIOGEN PHARMA S.P.A., priority 2005, dated 2018).

“Also recorded” adds a separate entry of the source.

The subject of series [1] is synovitis secondary to knee osteoarthritis. The conditions noted are these: patients with synovitis secondary to knee osteoarthritis; cited from earlier work.
Series [2] concerns damaging effects on the joint structures by Freund's adjuvant. Description: Study on rats: damage to joint structures by Freund's adjuvant. The format is in vivo.
Series [3] concerns gonarthritis. Description: Clinical trial of intra-articular sodium clodronate in evident gonarthritis. It counts as in vivo, patients. An excerpt:
(§1) The low pH used was dictated by stability problems, +which made less acid values of the solutions unacceptable.

Series [4] deals with gonalgia and gonarthrosis. Put plainly: Multicenter clinical study of intra-articular clodronate. It counts as in vivo, patients. Particulars: 2 mg once a week over 4 consecutive weeks.
Description: as §1

The test system of series [5] is gonarthritis. Put plainly: Preliminary clinical trial of intra-articular infiltration, responders by Womac 20 and Womac 50. It counts as in vivo, patients. Particulars: for Womac 20 (responders, 20% improvement in the symptoms) / Womac 50 (responders, 50% improvement in the symptoms): patients with gonarthritis, % of patients. How it is done: Preliminary clinical trials with the formulations according to the invention were based on the measurement of Womac 20 and Womac 50, ie. a 20% and 50% improvement in the symptoms to establish the responders to the treatment (Ann Rheum Dis. 2005). Recently, to assess the effectiveness of intra-articular clodronic acid, 1 mg of clodronic acid is administered in patients with gonarthritis obtaining an improvement in symptoms which, when evaluated with Womac 50, related to 32% of the patients. 15 patients suffering from gonarthritis received, according to the invention, an infiltration of 2 ml of solution constituted by 20 mg of hyaluronic acid (Hyalgan) together with 1 mg of clodronic acid once a week for 3 weeks. At the end of the infiltration cycle, as reassumed in the following table, 58% of the patients were responders according to Womac 20, and 37% were responders according to Womac 50. […] The final result of 3 weekly infiltrations of the combination of the two drugs was also better than the cycle with 5 weekly infiltrations of hyaluronic acid (Womac 20:51% and Womac 50:30%) or clodronic acid (Womac 20:54% and Womac 50:32%).

The mark [6] stands for this setting: 2 ml intra-articular infiltration once a week for 3 weeks.
[7] abbreviates: 2 ml intra-articular infiltration once a week for 5 weeks.

Turning to `O=P(O)(O)C(Cl)(Cl)P(=O)(O)O` [sodium clodronate], the “patient's symptomatology” value in series [1] is listed as “significant improvement”. For the same compound, the “inhibition of damaging effects on the joint structures by Freund's adjuvant” value in series [2] is listed as “able to inhibit damaging effects on the joint structures”. For the same compound, in series [3] (after 5 intra-articular injections of 2 mg), the “attenuation of pain and recovery of joint movement” value was “interesting results were observed”. In series [3] (clodronate alone intra-articularly, acidic solution, observed in the trials of b9 and b10), the “adverse events: pain response at the time of the injection” value was “some adverse events were also observed; also recorded: normally occurs”. The “response to intra-articular administration” value in series [4] is on record as “best responses”.

On to sodium hyaluronate, for which the entries for the “Womac 20 (responders, 20% improvement in the symptoms)” value in series [5] (setting [6]) and in series [5] (setting [7]) were 41% and 51%, respectively. Also, the “Womac 50 (responders, 50% improvement in the symptoms)” value in series [5] (setting [6]) was 24%; in series [5] (setting [7]) it was 30%.

Take `O=P(O)(O)C(Cl)(Cl)P(=O)(O)O` [Clodronic acid, clodronic acid]: the “improvement in symptoms evaluated with Womac 50” value in series [5] (1 mg clodronic acid intra-articular in patients with gonarthritis, regimen not stated, % of the patients) is recorded as 32%. Moreover, in series [5] (setting [6]), the “Womac 20 (responders, 20% improvement in the symptoms)” value was determined as 43% and the “Womac 50 (responders, 50% improvement in the symptoms)” value worked out at 27%. Moreover, in series [5] (setting [7]), the “Womac 20 (responders, 20% improvement in the symptoms)” value worked out at 54% and the “Womac 50 (responders, 50% improvement in the symptoms)” value stood at 32%.
